Our source for the GI50 and TGI values is PubChem BioAssay (NCI).

“And” between values parts separate entries of the source, which are not always exact repeats. Equal entries are not always repeated.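 Tested at 5 concentrations; 48 h exposure; 96-well plates; endpoints linearly interpolated, else capped at highest concentration. GI50 = concentration required for 50% inhibition of growth. TGI denotes the concentration required for complete inhibition of growth.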

Test systems include CCRF-CEM leukemia; EKVX NSCLC; HCT-15 colon; HOP-92 NSCLC; KM12 colon; MDA-MB-435; NCI/ADR-RES ovarian; OVCAR-3 ovarian; SK-OV-3 ovarian; TK-10 renal.
Assay in all cases: DTP human tumour cell line panel, 48 h

Regarding `C/C(=N\NC(=O)c1ccccc1O)c1cccc(/C(C)=N/NC(=O)c2ccccc2O)n1`, the GI50 was 0.693 µM with CCRF-CEM leukemia; 0.317 µM in the experiment on EKVX NSCLC; 0.568 µM with HCT-15 colon; 0.908 µM with HOP-92 NSCLC; 0.456 µM in the experiment with KM12 colon; 0.767 µM in the experiment with MDA-MB-435. For the same compound, the GI50 is greater than 100 µM in the experiment with NCI/ADR-RES ovarian; 1.06 µM and 0.362 µM with OVCAR-3 ovarian; 1.31 µM in the experiment on SK-OV-3 ovarian; 0.614 µM in the experiment on TK-10 renal. Further, the TGI in the experiment on CCRF-CEM leukemia is 48.8 µM; in the experiment on EKVX NSCLC it was greater than 100 µM; in the experiment with HCT-15 colon, greater than 100 µM; in the experiment with HOP-92 NSCLC, 67.3 µM and 36.8 µM; with KM12 colon, greater than 100 µM; in the experiment on MDA-MB-435, greater than 100 µM. For the same compound, the TGI in the experiment with NCI/ADR-RES ovarian is greater than 100 µM; in the experiment with OVCAR-3 ovarian, 24.3 µM and > 53.5 µM; with SK-OV-3 ovarian, 36.3 µM and > 100 µM; in the experiment on TK-10 renal it was greater than 80.6 µM.
On to `COc1cc2nc(N3CCCC3)nc(Nc3ccccc3)c2cc1OC`, for which the 50% growth inhibitory concentration (GI50) with CCRF-CEM leukemia is 0.329 µM; in the experiment with EKVX NSCLC, 1.88 µM; in the experiment with HCT-15 colon, 0.68 µM; in the experiment with HOP-92 NSCLC, 1.39 µM; in the experiment with KM12 colon, 1.74 µM; in the experiment with MDA-MB-435 it was 1.66 µM. In addition, the GI50 was 1.74 µM in the experiment on NCI/ADR-RES ovarian, 1.8 µM in the experiment with OVCAR-3 ovarian, 1.99 µM in the experiment on SK-OV-3 ovarian and 1.88 µM in the experiment on TK-10 renal. For the same compound, the concentration for total growth inhibition (TGI) with CCRF-CEM leukemia is 3.09 µM; in the experiment on EKVX NSCLC, 3.53 µM; in the experiment with HCT-15 colon it was 2.04 µM; with HOP-92 NSCLC it was 2.99 µM; in the experiment with KM12 colon, 3.32 µM; in the experiment on MDA-MB-435, 3.09 µM. For the same compound, the total growth inhibition concentration (TGI) in the experiment with NCI/ADR-RES ovarian worked out at 4.07 µM; in the experiment with OVCAR-3 ovarian it was 3.3 µM; in the experiment with SK-OV-3 ovarian, 3.72 µM; in the experiment with TK-10 renal it was 3.37 µM.
As to `S=C=NCc1ccccc1`, the concentration for total growth inhibition (TGI) in the experiment with CCRF-CEM leukemia turned out to be 2.48 µM; with EKVX NSCLC, 28.4 µM; in the experiment with HCT-15 colon it was 11.1 µM; in the experiment with HOP-92 NSCLC, 17 µM; in the experiment with KM12 colon, 15.8 µM; in the experiment on MDA-MB-435, 8.33 µM. Further, the TGI in the experiment on NCI/ADR-RES ovarian is greater than 32 µM; in the experiment with OVCAR-3 ovarian, 11.3 µM; in the experiment with SK-OV-3 ovarian it was 25.1 µM; in the experiment with TK-10 renal, 12.2 µM.
As to `CCN(CC)CCCOc1cc(O)c2c(=O)cc(-c3ccccc3)oc2c1`, the GI50 in the experiment on CCRF-CEM leukemia was 10.4 µM; in the experiment with EKVX NSCLC it was 13.2 µM; in the experiment with HCT-15 colon, 3.94 µM; with HOP-92 NSCLC, 3.08 µM; in the experiment on KM12 colon, 11.7 µM; in the experiment on MDA-MB-435 it was 5.5 µM. Besides, the GI50 is 13.3 µM in the experiment on NCI/ADR-RES ovarian, 15.5 µM with OVCAR-3 ovarian, 14.3 µM with SK-OV-3 ovarian and 10.3 µM in the experiment with TK-10 renal. Besides, the TGI with CCRF-CEM leukemia was determined as 26.8 µM; with EKVX NSCLC, 26.4 µM; in the experiment on HCT-15 colon it was 14.6 µM; in the experiment on HOP-92 NSCLC it was 16.7 µM; with KM12 colon it was 33.3 µM; with MDA-MB-435, 24.8 µM. In addition, the TGI in the experiment on NCI/ADR-RES ovarian stood at 27.1 µM; in the experiment with OVCAR-3 ovarian, 34.1 µM; in the experiment on SK-OV-3 ovarian, 28 µM; in the experiment on TK-10 renal it was 25.3 µM.
As to `C[C@H]1[C@H](C)CC[C@]2(C(=O)O)CC[C@]3(C)C(=CC[C@@H]4[C@@]5(C)CC[C@H](OC(=O)/C=C/c6ccc(O)cc6)C(C)(C)[C@@H]5CC[C@]43C)[C@H]12`, the GI50 in the experiment with CCRF-CEM leukemia is 5 µM; in the experiment with EKVX NSCLC it was 3.88 µM; with HCT-15 colon, 10.9 µM; in the experiment on HOP-92 NSCLC, 16.6 µM; in the experiment on KM12 colon, 1.09 µM; in the experiment on MDA-MB-435, 6.38 µM. The GI50 with NCI/ADR-RES ovarian was 10.9 µM; with OVCAR-3 ovarian, 12.5 µM; in the experiment on SK-OV-3 ovarian it was 5.25 µM; with TK-10 renal, 3.01 µM. In addition, the total growth inhibition concentration (TGI) with CCRF-CEM leukemia is greater than 40.4 µM; with EKVX NSCLC, 18.6 µM; in the experiment on HCT-15 colon, 33 µM; with HOP-92 NSCLC, 37.2 µM; in the experiment on KM12 colon, 9.97 µM; with MDA-MB-435, 19.7 µM. Besides, the TGI with NCI/ADR-RES ovarian came out at 26.1 µM; in the experiment with OVCAR-3 ovarian it was 39.2 µM; with SK-OV-3 ovarian it was 20.3 µM; in the experiment with TK-10 renal it was 17.5 µM.
Consider `COc1ccc2[nH]c(=O)c(/C=C/C(=O)/C=C/c3ccc(O)c(OC)c3)cc2c1`, for which the GI50 was 2.06 µM in the experiment with CCRF-CEM leukemia; 1.95 µM in the experiment on EKVX NSCLC; 1.41 µM with HCT-15 colon; 1.84 µM in the experiment on HOP-92 NSCLC; 1.08 µM in the experiment on KM12 colon; 0.301 µM in the experiment on MDA-MB-435. The GI50 in the experiment with NCI/ADR-RES ovarian is 3.39 µM; with OVCAR-3 ovarian, 1.18 µM; in the experiment with SK-OV-3 ovarian it was 2.79 µM; in the experiment with TK-10 renal, 2.29 µM. In addition, the TGI in the experiment on CCRF-CEM leukemia is greater than 100 µM; in the experiment with EKVX NSCLC it was 4.35 µM; in the experiment on HCT-15 colon it was 3.81 µM; in the experiment with HOP-92 NSCLC, 5.06 µM; in the experiment on KM12 colon, 2.66 µM; with MDA-MB-435, 1.3 µM. Further, the TGI with NCI/ADR-RES ovarian was greater than 100 µM; with OVCAR-3 ovarian, 2.55 µM; in the experiment with SK-OV-3 ovarian it was 9.82 µM; in the experiment on TK-10 renal, 5.72 µM.
Consider `O=C(O)c1ccc(NCc2nc3cc4ccccc4cc3[nH]2)cc1`, for which the concentration for total growth inhibition (TGI) in the experiment with CCRF-CEM leukemia, with EKVX NSCLC, with HCT-15 colon, with HOP-92 NSCLC, in the experiment on KM12 colon and in the experiment on MDA-MB-435 was greater than 100 µM each time. Besides, the TGI in the experiment on NCI/ADR-RES ovarian, with OVCAR-3 ovarian, in the experiment with SK-OV-3 ovarian and with TK-10 renal was greater than 100 µM in each case.
As to `CN(C)CCNC(=O)Cn1ccc(=O)c2ccc([N+](=O)[O-])cc21`, the concentration for total growth inhibition (TGI) in the experiment with CCRF-CEM leukemia, with EKVX NSCLC, in the experiment on HCT-15 colon, in the experiment on HOP-92 NSCLC, in the experiment with KM12 colon and with MDA-MB-435 was greater than 100 µM each time. The total growth inhibition concentration (TGI) in the experiment with NCI/ADR-RES ovarian, with OVCAR-3 ovarian, in the experiment on SK-OV-3 ovarian and with TK-10 renal was greater than 100 µM in each case.

For orientation: GI50 means the concentration at which growth is held to half of that of the control. The TGI is the concentration giving total growth inhibition. Read a high TGI as lower sensitivity of the cells.
